Results taken from the NIST ThermoML archive (doi:10.1021/je700119m).
± gives the expanded uncertainty stated by the source.

Legend:
[1] = refractive index (Na D-line) (dimensionless); conditions: 298.15 K; 101.33 kPa; Liquid; Standard Abbe refractometry
[2] = 298.15 K, 101.33 kPa, Liquid

| Structure (SMILES) | refractive index [1] | mass density ([2]; Vibrating tube method) [kg/m3] | mass density [2] [kg/m3] |
| --- | --- | --- | --- |
| CC(C)O [propan-2-ol] | 1.37496 ± 0.00068 | 781 ± 0.4 | – |
| COS(=O)(=O)[O-].Cn1cc[n+](C)c1 [1,3-dimethylimidazolium methylsulfate] | 1.4827 ± 0.00078 | – | 1327.2 ± 2.7 |
| CCO [ethanol] | 1.35929 ± 0.00068 | – | 785.1 ± 0.5 |
| CCC(C)=O [butanone] | 1.37618 ± 0.00068 | – | 799.7 ± 0.6 |
| CCCCn1cc[n+](C)c1.F[P-](F)(F)(F)(F)F [1-butyl-3-methylimidazolium hexafluorophosphate] | 1.40937 ± 0.00078 | – | 1367.3 ± 2.9 |
